# Patent publication US20260083844A1, “DOWNREGULATING INOS TO INCREASE CAR-T KILLING” (H. LEE MOFFITT CANCER CENTER AND RESEARCH INSTITUTE INC., priority 2022, published 2026)
# Experiments:
# [1] = system: CAR T cells; experiment: CAR T cell expansion assay (live cell analysis) in coculture with Eμ-myc cells with or without macrophages; format: cell-based, mouse; conditions: over 48 h
# Method: To explore how M2-like macrophages may impact the cellular function of CAR T cells, a syngeneic coculture system was employed (FIG. 2A). […] The BMDMs were differentiated into M2-like macrophages (imMac) by culturing with IL-4 and IL-10 or with media alone without further differentiation to utilize as unpolarized macrophage controls (unMac). The mCherry reporter served as a marker for CAR transduction and CAR T cell expansion.
# The expansion of CAR T cells was determined by an Incucyte S3 live cell analysis system (Essen Bioscience). 2×10^4 Eμ-myc cells and 2×10^4 CAR T cells were cocultured in the absence or presence of 0.5×10^4 macrophages (CAR T:Eμ-myc cell:Macrophage=1:1:0.25, unless otherwise indicated in the figure legends) in a 96-well black-walled clear bottom plate in 120 μl of media. Cell images were captured at 4× magnification. The expansion index was calculated by dividing the total integrated red intensity (RCU×μm^2/mm^2) at each time point by the first time point.
# [2] = system: Eμ-myc cells; experiment: Luciferase-based killing assay with CAR T cells isolated from initial coculture; format: cell-based, mouse; conditions: for ability of CAR T cells to kill tumor cells: 48 h initial coculture with Eμ-myc cells in presence of NCX-4016 (100 µM) or PNT (50 µM), no macrophages, lysis at 24 h
# Method: (§1) 1×10^6 CAR T cells and 1×10^6 Eμ-myc-GFP-FFL cells were cocultured in the absence or presence of 0.25×10^6 macrophages in a 6-well plate in 6 ml of media for 48 h. After initial coculture, cells were harvested, and T cells were isolated using Mouse T Cell Isolation Kit ([…] Technologies). […] Percentage of CAR-expressing T cells was determined with flow cytometry and were subsequently used for downstream assays.
# 2×10^4 Eu-ALL-GFP-FFL cells were cocultured with CAR T cells at different effector-to-target ratios in a 96-well white-walled plate in 100 μl of media. Following incubation, 100 μl luciferase substrate reagent (ONE-Glo Luciferase assay system, Promega) was added to each well. Target cells alone were plated at the same cell density to determine maximum luciferase signals. Emitted luminescence was detected in the microplate reader (GloMax, Promega). Percent lysis was determined as (1-sample signal/maximum signal)×100.
# [3] = system: IFN-γ and TNF-α; experiment: Cytokine secretion assay with CAR T cells isolated from initial coculture; format: cell-based, mouse; conditions: for secretion of effector cytokines IFN-γ and TNF-α by CAR T cells: 48 h initial coculture with Eμ-myc cells in presence of NCX-4016 (100 µM) or PNT (50 μM), no macrophages, supernatants at 24 h
# Method: as §1
# 2×10^4 Eμ-myc cells were cocultured with 2×10^4 CAR T cells in a 96-well plate in a total volume of 100 μl of media. Supernatants were collected and analyzed for IFN-γ and TNF-α secretion using Ella automated immunoassay system (Proteinsimple Bio-techne) according to manufacturer's instructions.
# [4] = system: CAR T cells; experiment: Global metabolomics on CAR T cells from coculture; format: cell-based, mouse; conditions: 48 h coculture with imMac
# Method: (§2) 1×10^6 CAR T cells and 1×10^6 Eμ-myc-GFP-FFL cells were cocultured in the absence or presence of 0.25×10^6 macrophages in a 6-well plate in 6 ml of media for 48 h. After initial coculture, cells were harvested, and T cells were isolated using Mouse T Cell Isolation Kit (STEMCELL Technologies). T cell purity was 100% as tested by flow cytometry. Percentage of CAR-expressing T cells was determined with flow cytometry and were subsequently used for downstream assays.
# Global metabolomic profiling and 13C6-labeled glucose tracing of CAR T cells, 1×10^6 T cells were resuspended in either RPMI-1640 medium (RPMI+10% heat-inactivated dialyzed FBS) or 13C6-glucose substituted RPMI-1640 medium (glucose-free RPMI+10% heat-inactivated dialyzed FBS+11.1 mM ^13C6-glucose). After 4 h incubation, cells were collected, rapidly centrifuged (17,000×g, 10 sec, room temperature), and medium was removed. T cells were washed with 1 ml of ice-cold PBS, and metabolites were extracted with 300 μl of 80% methanol via incubation at −80° C. for 15 min. Samples were centrifuged (17,000×g, 20 min, 4° C.), and supernatants were transferred to an Eppendorf tube and dried in a vacuum evaporator overnight. The dried extracts were resuspended in 20 μl of aqueous 50% methanol, clarified by centrifugation (17,000×g, 20 min, room temperature), and analyzed by LC-HRMS. […]
# [5] = system: CAR T cells; experiment: Seahorse assay (ECAR, OCR) on CAR T cells from coculture; format: cell-based, mouse; conditions: 48 h coculture in the presence of imMac
# Method: as §2
# ECAR and OCR were measured using a Seahorse Extracellular Flux Analyzer (Agilent Technologies). XF96 microplates were coated with CellTak a day before analyses. To assay glycolytic function, T cells were resuspended in glucose-free XF medium supplied with 2 mM L-glutamine and 1 mM sodium pyruvate and seeded at 2×10^5 cells in 180 μl per well. Following incubation in a CO2-free incubator for 60 min at 37° C. for pH stabilization, ECAR was measured in response to 10 mM glucose, 1 μM oligomycin, and 50 mM 2-deoxyglucose. To assay mitochondrial function, T cells were resuspended in XF medium supplied with 2 mM L-glutamine, 1 mM sodium pyruvate, and 10 mM glucose and seeded at 2×10^5 cells in 180 μl per well. Following incubation in a CO2-free incubator for 60 min at 37° C. for pH stabilization, OCR was measured in response to 1 μM oligomycin, 1 μM FCCP, and 0.5 µM rotenone and antimycin.
# [6] = system: Eμ-myc B cell tumors; experiment: Survival of Eμ-myc tumor-bearing Rag1−/− mice treated with CAR T cells; format: in vivo, mouse; conditions: combination of 1928z CAR T cells and L-NIL (20 mg/kg i.p. once per day) compared to 1928z CAR T cells alone
# Method: Six-to 10-week-old Rag1/-mice of both sexes were intraperitoneally (i.p.) injected with 3×10^6 Eμ-myc-GFP-FFL cells to generate tumors localized in peritoneal cavity. Tumor engraftment was verified by bioluminescence imaging one day before CAR T cell transfer. Mice were randomized to different treatment groups without differences in pre-treatment tumor load. Seven days after tumor cell inoculation, mice were injected i.p. with 5×10^6 CAR T cells in 300 μl PBS. For survival experiments, L-NIL or PBS was administered i.p. once per day at 20 mg/kg body weight starting on the same day of tumor cell injection. […] Bioluminescence imaging was performed by IVIS Lumina III In Vivo Imaging System (PerkinElmer) with Living Image software (PerkinElmer).
# [7] = CAR T cells cocultured with Eμ-myc cells without macrophages
# [8] = cocultures of CAR T cells and Eμ-myc cells with imMac
compound,measurement,setting,value
CC(=O)Oc1ccccc1C(=O)Oc1cccc(CO[N+](=O)[O-])c1 [NCX-4016],CAR T cell expansion,[1]; [7],inhibition of CAR T cell expansion
same,ability of CAR T cells to kill tumor cells,[2],diminished ability of CAR T cells to kill tumor cells
same,secretion of effector cytokines IFN-γ and TNF-α by CAR T cells,[3],diminished
NC(=O)NCCC[C@H](N)C(=O)O [citrulline],CAR T cell expansion,[1]; [7],did not impact expansion of CAR T cells
"CC(=N)NCCCC[C@H](N)C(=O)O [L-NIL, L-N6-(1-Iminoethyl)-lysine]",CAR T cell expansion,[1]; [8],complete rescue of CAR T cell expansion
same,capacity of CAR T cells to kill (lyse) tumor cells,"[2]; CAR T cells isolated after 48 h initial coculture with imMac, then cocultured with fresh Eμ-myc cells, 24 h",preserved the capacity of CAR T cells to kill tumor cells
same,production of effector cytokines IFN-γ and TNF-α by CAR T cells,"[3]; CAR T cells isolated after 48 h initial coculture with imMac, then cocultured with fresh Eμ-myc cells",preserved
same,"depletion of F1,6BP, G3P and DHAP in CAR T cells cocultured with imMac",[4],reversal
same,"glycolytic and oxidative metabolic capabilities of CAR T cells (ECAR, OCR)",[5],preserved glycolytic and oxidative metabolic capabilities of CAR T cells
same,survival of tumor-bearing mice,[6],significantly improved survival
N=C(NO)NCC[C@H](N)C(=O)O [nor-NOHA],CAR T cell expansion,"[1]; cocultures with imMac, physiological arginine concentration (150 μM)",failed to rescue CAR T cell expansion
same,CAR T cell expansion,"[1]; cocultures with imMac, supraphysiological arginine concentration (1.15 mM)",did not restore CAR T cell expansion
"CC1(C)N([O])C(c2ccc(C(=O)O)cc2)=[N+]([O-])C1(C)C [c-PTIO, carboxyl-PTIO]",CAR T cell expansion,[1]; [8],partially rescued expansion of CAR T cells
"O=NOO [PNT, peroxynitrite]",CAR T cell expansion,[1]; [7],inhibition of CAR T cell expansion
same,ability of CAR T cells to kill tumor cells,[2],diminished ability of CAR T cells to kill tumor cells
same,secretion of effector cytokines IFN-γ and TNF-α by CAR T cells,[3],diminished
"C=C(CC(=O)OCCCCCCCC)C(=O)O [4-OI, 4-octyl itaconate]",CAR T cell expansion,[1]; [7],impaired CAR T cell expansion
